From PubChem BioAssay (NCI)
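Growth conditions: 96-well plates. Treatment: test compound, 48 hours, 5 concentrations. Analysis: linear interpolation between bracketing concentrations; unreached endpoints set to highest concentration. Abbreviation: GI50, concentration required for 50% inhibition of growth. The concentration for full growth arrest is given as TGI.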

How the values were obtained:
Assay in all cases: NCI tumour cell line growth inhibition, 48 h
[1] = system: DU-145 prostate
[2] = system: OVCAR-5 ovarian
[3] = system: CCRF-CEM leukemia
[4] = system: SW-620 colon
[5] = system: NCI-H522 lung
[6] = system: SNB-19 CNS
[7] = system: SR leukemia
[8] = system: UACC-257 melanoma
[9] = system: HL-60(TB) leukemia
[10] = system: UACC-62 melanoma
[11] = system: SN12C renal
[12] = system: RXF 393 renal
[13] = system: A549 NSCLC
[14] = system: NCI-H460 lung
[15] = system: BT-549 breast
[16] = system: CAKI-1 renal
[17] = system: HCT-116 colon
[18] = system: OVCAR-3 ovarian
[19] = system: EKVX NSCLC
[20] = system: T-47D breast
[21] = system: SF-268 CNS
[22] = system: K-562 leukemia
[23] = system: TK-10 renal
[24] = system: ACHN renal
[25] = system: MDA-MB-435
[26] = system: SK-MEL-5 melanoma
[27] = system: NCI-H226 lung
[28] = system: MALME-3M melanoma
[29] = system: MCF7 breast
[30] = system: SK-MEL-28 melanoma
[31] = system: LOX IMVI melanoma
[32] = system: OVCAR-4 ovarian
[33] = system: PC-3 prostate
[34] = system: SK-MEL-2 melanoma
[35] = system: MOLT-4 leukemia
[36] = system: U251 CNS
[37] = system: COLO 205 colon
[38] = system: HOP-62 NSCLC
[39] = system: IGROV1 ovarian
[40] = system: NCI-H23 lung
[41] = system: SF-539 CNS
[42] = system: A498 renal
[43] = system: MDA-MB-231 breast
[44] = system: 786-0 renal
[45] = system: KM12 colon
[46] = system: HCC-2998 colon
[47] = system: HT29 colon
[48] = system: HCT-15 colon
[49] = system: SK-OV-3 ovarian
[50] = system: M14 melanoma
[51] = system: OVCAR-8 ovarian
[52] = system: NCI/ADR-RES ovarian
[53] = system: UO-31 renal
[54] = system: HS 578T breast
[55] = system: SNB-75 CNS
[56] = system: SF-295 CNS
[57] = system: HOP-92 NSCLC
[58] = system: RPMI-8226 leukemia

CCc1ccc(Oc2nccc(-c3c(-c4ccc(F)cc4)ncn3C3CCNCC3)n2)cc1
GI50 [1]: 5.83 µM | TGI [1]: 14 µM | GI50 [2]: 6.45 µM | TGI [2]: 15.1 µM | GI50 [3]: 6.77 µM | TGI [3]: 17.8 µM | GI50 [4]: 4.35 µM | TGI [4]: 8.74 µM | GI50 [5]: 4.73 µM | TGI [5]: 8.67 µM | GI50 [6]: 7.84 µM | TGI [6]: 17.2 µM | GI50 [7]: 7.25 µM | TGI [7]: 18.1 µM | GI50 [8]: 4.34 µM | TGI [8]: 8.04 µM | GI50 [9]: 5.78 µM | TGI [9]: 11.5 µM | GI50 [10]: 4.6 µM | TGI [10]: 9.08 µM | GI50 [11]: 5.19 µM | TGI [11]: 13.9 µM | GI50 [12]: 3.99 µM | TGI [12]: 7.49 µM | GI50 [13]: 5.18 µM | TGI [13]: 13.3 µM | GI50 [14]: 4.28 µM | TGI [14]: 8.49 µM | GI50 [15]: 5.55 µM | TGI [15]: 13.1 µM | GI50 [16]: 5.5 µM | TGI [16]: 14.6 µM | GI50 [17]: 5.84 µM | TGI [17]: 13.9 µM | GI50 [18]: 10.5 µM | TGI [18]: 14.5 µM | GI50 [19]: 7.2 µM | TGI [19]: 14.2 µM | GI50 [20]: 4.3 µM | TGI [20]: 11.6 µM | GI50 [21]: 6.76 µM | TGI [21]: 15.4 µM | GI50 [22]: 4.64 µM | TGI [22]: 10.9 µM | GI50 [23]: 4.24 µM | TGI [23]: 7.93 µM | GI50 [24]: 4.77 µM | TGI [24]: 13.6 µM | GI50 [25]: 4.47 µM | TGI [25]: 8.77 µM | GI50 [26]: 4.22 µM | TGI [26]: 7.71 µM | GI50 [27]: 6.81 µM | TGI [27]: 16.3 µM | GI50 [28]: 4.62 µM | TGI [28]: 9.13 µM | GI50 [29]: 4.39 µM | TGI [29]: 8.37 µM | GI50 [30]: 4.73 µM | TGI [30]: 8.44 µM | GI50 [31]: 4.78 µM | TGI [31]: 10.2 µM | GI50 [32]: 5.02 µM | TGI [32]: 13 µM | GI50 [33]: 5.33 µM | TGI [33]: 14.1 µM | GI50 [34]: 5.24 µM | TGI [34]: 9.48 µM | GI50 [35]: 7.15 µM | TGI [35]: 15.8 µM | GI50 [36]: 4.06 µM | TGI [36]: 9.16 µM | GI50 [37]: 4.24 µM | TGI [37]: 7.93 µM | GI50 [38]: 4.13 µM | TGI [38]: 8.53 µM | GI50 [39]: 4.71 µM | TGI [39]: 12.1 µM | GI50 [40]: 10.7 µM | TGI [40]: 15.1 µM | GI50 [41]: 4.79 µM | TGI [41]: 9.57 µM | GI50 [42]: 3.55 µM | TGI [42]: 9.82 µM | GI50 [43]: 5.16 µM | TGI [43]: 13.6 µM | GI50 [44]: 4.91 µM | TGI [44]: 10.4 µM | GI50 [45]: 6.01 µM | TGI [45]: 14.3 µM | GI50 [46]: 3.94 µM | TGI [46]: 7.61 µM | GI50 [47]: 3.84 µM | TGI [47]: 8.15 µM | GI50 [48]: 6.35 µM | TGI [48]: 15.8 µM | GI50 [49]: 4.37 µM | TGI [49]: 9.21 µM | GI50 [50]: 5.46 µM | TGI [50]: 10.8 µM | GI50 [51]: 4.7 µM | TGI [51]: 10.6 µM | GI50 [52]: 4.69 µM | TGI [52]: 12.9 µM | GI50 [53]: 3.63 µM | TGI [53]: 9.5 µM | GI50 [54]: 7.01 µM | TGI [54]: 17.1 µM | GI50 [55]: 3.58 µM | TGI [55]: 10.7 µM | GI50 [56]: 5.52 µM | TGI [56]: 12.1 µM | GI50 [57]: 1.17 µM | TGI [57]: 9.53 µM | GI50 [58]: 5.77 µM | TGI [58]: 14.9 µM
